Experiments:
Assay in all cases: relative viability (nuclei count vs DMSO), 5 days (fraction); higher = more cells survive
Erlotinib + Tozasertib = compound: C#Cc1cccc(Nc2ncnc3cc(OCCOC)c(OCCOC)cc23)c1 [Erlotinib] + Cc1cc(Nc2cc(N3CCN(C)CC3)nc(Sc3ccc(NC(=O)C4CC4)cc3)n2)n[nH]1 [Tozasertib] (partner 0.1 µM)
Outline: (§1)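 Lung cancer cell lines, seeded in 1536-well plates, were treated the following day by pin tool with a single drug or with five library-drug doses (not always all listed) in √10 steps on top of a fixed anchor-drug dose. Cells were fixed and nuclei stained in one step after 5 days, and nuclei were counted. Relative viability is the nuclei count for treated wells divided by that for vehicle wells, reported as medians of duplicate plates.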

AT9283 + Linsitinib = compound: O=C(Nc1c[nH]nc1-c1nc2ccc(CN3CCOCC3)cc2[nH]1)NC1CC1 [AT9283] + C[C@]1(O)C[C@@H](c2nc(-c3ccc4ccc(-c5ccccc5)nc4c3)c3c(N)nccn32)C1 [Linsitinib] (partner 1 µM)
Outline: as §1

AT9283 + Pemetrexed = compound: O=C(Nc1c[nH]nc1-c1nc2ccc(CN3CCOCC3)cc2[nH]1)NC1CC1 [AT9283] + Nc1nc2[nH]cc(CCc3ccc(C(=O)N[C@@H](CCC(=O)O)C(=O)O)cc3)c2c(=O)[nH]1 [Pemetrexed] (partner 0.2 µM)
Outline: as §1

AT9283 + Olaparib = compound: O=C(Nc1c[nH]nc1-c1nc2ccc(CN3CCOCC3)cc2[nH]1)NC1CC1 [AT9283] + O=C(c1cc(Cc2n[nH]c(=O)c3ccccc23)ccc1F)N1CCN(C(=O)C2CC2)CC1 [Olaparib] (partner 8 µM)
Outline: as §1

Erlotinib + Bortezomib = compound: C#Cc1cccc(Nc2ncnc3cc(OCCOC)c(OCCOC)cc23)c1 [Erlotinib] + CC(C)C[C@H](NC(=O)[C@H](Cc1ccccc1)NC(=O)c1cnccn1)B(O)O [Bortezomib] (partner 0.002 µM)
Outline: as §1

Cell Line | relative viability (Erlotinib + Tozasertib; first compound 0.02 µM) | relative viability (Erlotinib + Tozasertib; first compound 0.2 µM) | relative viability (Erlotinib + Tozasertib; first compound 0.6325 µM) | relative viability (Erlotinib + Tozasertib; first compound 2 µM) | relative viability (AT9283 + Linsitinib; first compound 0.003 µM) | relative viability (AT9283 + Linsitinib; first compound 0.03 µM) | relative viability (AT9283 + Linsitinib; first compound 0.09487 µM) | relative viability (AT9283 + Linsitinib; first compound 0.3 µM) | relative viability (AT9283 + Pemetrexed; first compound 0.003 µM) | relative viability (AT9283 + Pemetrexed; first compound 0.03 µM) | relative viability (AT9283 + Pemetrexed; first compound 0.09487 µM) | relative viability (AT9283 + Pemetrexed; first compound 0.3 µM) | relative viability (AT9283 + Olaparib; first compound 0.003 µM) | relative viability (AT9283 + Olaparib; first compound 0.03 µM) | relative viability (AT9283 + Olaparib; first compound 0.09487 µM) | relative viability (AT9283 + Olaparib; first compound 0.3 µM) | relative viability (Erlotinib + Bortezomib; first compound 0.02 µM) | relative viability (Erlotinib + Bortezomib; first compound 0.2 µM) | relative viability (Erlotinib + Bortezomib; first compound 0.6325 µM) | relative viability (Erlotinib + Bortezomib; first compound 2 µM)
SK-MES-1 | 0.925 | 0.929 | 0.648 | 0.536 | 1.07 | 0.933 | 0.846 | 0.17 | 1.07 | 0.843 | 0.429 | 0.218 | 0.783 | 0.677 | 0.415 | 0.144 | – | – | – | –
H3255 | – | 0.564 | 0.211 | 0.142 | 0.877 | 0.91 | 0.298 | 0.132 | 0.544 | 0.553 | 0.46 | 0.238 | 0.553 | 0.52 | 0.545 | 0.231 | 0.99 | 0.758 | 0.244 | 0.179
NCI-H2126 | 0.841 | 0.691 | 0.674 | 0.481 | 0.685 | 0.758 | 0.714 | 0.276 | 0.684 | 0.693 | 0.559 | 0.358 | 0.978 | 0.938 | 0.698 | 0.364 | 1.12 | 1.11 | 0.964 | 0.769
NCI-H1703 | – | – | – | – | 0.985 | 0.284 | 0.258 | 0.223 | – | – | – | – | 0.383 | 0.155 | 0.169 | 0.229 | 0.296 | 0.346 | 0.409 | 0.238
SW 1573 | 0.183 | 0.197 | 0.156 | 0.226 | 0.917 | 0.413 | 0.223 | 0.184 | 0.813 | 0.302 | 0.182 | 0.121 | 0.485 | 0.159 | 0.159 | 0.14 | 1.08 | 1.02 | 0.934 | 0.879
NCI-H838 | 0.293 | 0.273 | 0.283 | 0.25 | 1.01 | 0.247 | 0.217 | 0.197 | 0.227 | 0.21 | 0.182 | 0.153 | 0.745 | 0.323 | 0.183 | 0.164 | 0.8 | 0.491 | 1.18 | 0.694
NCI-H1792 | – | – | – | – | 0.492 | 0.629 | 0.192 | 0.117 | 0.783 | 0.945 | 0.805 | 0.167 | 0.468 | 0.491 | 0.358 | 0.252 | 0.897 | 0.958 | 1.18 | 0.783
NCI-H1651 | 0.671 | – | 0.606 | 0.282 | 1.05 | 0.864 | 0.348 | 0.357 | 0.48 | 0.506 | 0.528 | 0.378 | 0.176 | 0.189 | 0.209 | 0.243 | 0.912 | 0.909 | 0.918 | 0.882
HARA | 0.0745 | 0.0897 | 0.0791 | 0.0606 | 0.428 | 0.879 | 0.0968 | 0.0955 | 0.217 | 0.239 | 0.167 | 0.166 | 0.756 | 0.278 | 0.205 | 0.179 | 1.2 | 1.01 | 0.959 | 0.867
NCI-H1944 | 0.249 | 0.21 | 0.227 | 0.174 | 1.17 | 0.973 | 0.528 | 0.331 | 0.627 | 0.5 | 0.232 | 0.191 | 0.401 | 0.361 | 0.205 | 0.206 | – | – | – | –
SK-LU-1 | 0.336 | 0.352 | 0.332 | 0.267 | 1.1 | 0.349 | 0.323 | 0.356 | 1.16 | 0.663 | 0.396 | 0.391 | 0.495 | 0.479 | 0.259 | 0.258 | 1.07 | 1.55 | 1.61 | 0.984
NCI-H650 | – | – | 0.767 | 0.58 | 0.7 | 0.601 | 0.262 | 0.164 | 0.939 | 0.864 | 0.53 | 0.153 | 0.396 | 0.399 | 0.215 | 0.146 | 0.749 | 0.88 | 0.958 | –
PC-14 | 0.435 | 0.148 | 0.159 | 0.103 | 1.04 | 0.729 | 0.438 | 0.138 | 0.145 | 0.0954 | 0.0681 | 0.0563 | 0.264 | 0.151 | 0.074 | 0.0669 | 0.67 | 0.259 | 0.21 | 0.249
NCI-H2170 | 0.811 | 0.73 | 0.607 | 0.324 | – | – | – | – | 0.464 | 0.234 | 0.2 | 0.132 | 0.613 | 0.385 | 0.14 | 0.146 | – | – | – | –
CAL-12T | 0.357 | 0.226 | 0.188 | 0.153 | 0.905 | 0.286 | 0.22 | 0.202 | 1.36 | 1.03 | 0.572 | 0.31 | 0.734 | 0.536 | 0.307 | 0.222 | 0.879 | 0.73 | 0.713 | 0.487
IA-LM | – | – | – | – | 0.626 | 0.432 | 0.311 | 0.102 | – | – | – | – | 0.998 | 0.524 | 0.243 | 0.145 | 0.833 | – | 0.977 | 0.86
A-427 | 0.251 | 0.225 | 0.197 | 0.162 | 0.834 | 1.03 | 0.276 | 0.205 | 0.979 | 0.767 | 0.272 | 0.299 | 0.652 | 0.428 | 0.292 | 0.27 | 1.01 | 1.04 | 1.1 | 0.951
